Measurements as given in patent US9067943B2, “[1,2,3]triazolo[4,5-D]pyrimidine derivatives” (priority 2011, dated 2015).
Like-named read-outs stand apart in the source and are kept apart here.

Key:
human CB1 receptors = biological target: T1, human CB1 receptors (Homo sapiens, UniProt P21554); assay: cAMP assay; format: cell-based
T1 construct: expressed in transfected cells; host or cells: CHO cells
In short: (§1)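 CHO cells expressing human CB1 or CB2 were preincubated 30 min at 30 °C in Krebs Ringer bicarbonate buffer with 1 mM IBMX, then exposed to compounds for 30 min at 30 °C. cAMP was measured by time-resolved FRET against a cAMP standard curve, and EC50 values were derived.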

human CB2 receptors = biological target: T2, human CB2 receptors (Homo sapiens, UniProt P34972); assay: cAMP assay; format: cell-based
T2 construct: expressed in transfected cells; host or cells: CHO cells
In short: as §1

[1] = functional cAMP assay, CHO cells expressing human CB2, read-out: human CB2 EC50

T2 sequence (P34972 whole entry): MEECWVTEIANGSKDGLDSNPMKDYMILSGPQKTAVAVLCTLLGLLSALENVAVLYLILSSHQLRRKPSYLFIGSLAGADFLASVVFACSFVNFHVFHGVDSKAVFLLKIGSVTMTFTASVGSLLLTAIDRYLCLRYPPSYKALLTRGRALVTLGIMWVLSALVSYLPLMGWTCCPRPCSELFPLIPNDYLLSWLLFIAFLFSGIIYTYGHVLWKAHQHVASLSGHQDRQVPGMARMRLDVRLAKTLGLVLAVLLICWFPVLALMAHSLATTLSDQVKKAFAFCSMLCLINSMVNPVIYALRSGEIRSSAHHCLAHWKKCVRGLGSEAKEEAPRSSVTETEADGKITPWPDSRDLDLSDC
T1 sequence (P21554 whole entry): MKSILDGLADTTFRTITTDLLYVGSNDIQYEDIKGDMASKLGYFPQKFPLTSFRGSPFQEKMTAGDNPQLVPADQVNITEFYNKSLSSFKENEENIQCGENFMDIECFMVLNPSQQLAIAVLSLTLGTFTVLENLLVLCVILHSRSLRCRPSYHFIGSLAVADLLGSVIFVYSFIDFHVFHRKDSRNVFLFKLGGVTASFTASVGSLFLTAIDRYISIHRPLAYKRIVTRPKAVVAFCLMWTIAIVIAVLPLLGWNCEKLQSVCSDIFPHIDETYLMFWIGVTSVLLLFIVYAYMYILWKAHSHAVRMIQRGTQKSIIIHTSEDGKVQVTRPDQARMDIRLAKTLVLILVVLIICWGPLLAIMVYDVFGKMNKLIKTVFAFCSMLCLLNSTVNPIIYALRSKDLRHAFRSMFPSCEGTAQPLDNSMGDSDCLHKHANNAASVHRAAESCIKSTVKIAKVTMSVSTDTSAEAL

SMILES	EC50 (human CB1 receptors)	EC50 (human CB2 receptors)	EC50 (human CB2 receptors; [1])
Cn1nnnc1Cn1nc2nc(C(C)(C)C)nc(N3CCC(F)(F)C3)c2n1 [Example 68, 5-tert-Butyl-7-(3,3-difluoro-pyrrolidin-1-yl)-2-(1-methyl-1H-tetrazol-5-ylmethyl)-2H-[1,2,3]triazolo[4,5-d]pyrimidine]	> 10000 nM	2.3 nM	
Cn1ncnc1Cn1nc2nc(C(C)(C)C)nc(N3CCC(F)(F)C3)c2n1 [Example 69, 5-tert-Butyl-7-(3,3-difluoro-pyrrolidin-1-yl)-2-(2-methyl-2H-[1,2,4]triazol-3-ylmethyl)-2H-[1,2,3]triazolo[4,5-d]pyrimidine]	> 10000 nM	1.1 nM	
Cn1c(Cn2nc3nc(C(C)(C)C)nc(N4CCC(F)(F)C4)c3n2)nnc1S(C)(=O)=O [Example 70, 5-tert-Butyl-7-(3,3-difluoro-pyrrolidin-1-yl)-2-(5-methanesulfonyl-4-methyl-4H-[1,2,4]triazol-3-ylmethyl)-2H-[1,2,3]triazolo[4,5-d]pyrimidine]	> 10000 nM	33.6 nM	
CN(C)c1c(Cl)cncc1Cn1nc2nc(C(C)(C)C)nc(N3CCC(F)(F)C3)c2n1 [Example 71, {3-[5-tert-Butyl-7-(3,3-difluoro-pyrrolidin-1-yl)-[1,2,3]triazolo[4,5-d]pyrimidin-2-ylmethyl]-5-chloro-pyridin-4-yl}-dimethyl-amine]	105 nM	1.4 nM	
CC(C)(C)c1nc(N2CCC(F)(F)C2)c2nn(Cc3c[nH]nc3C(F)(F)F)nc2n1 [Example 72, 5-tert-Butyl-7-(3,3-difluoro-pyrrolidin-1-yl)-2-(3-trifluoromethyl-1H-pyrazol-4-ylmethyl)-2H-[1,2,3]triazolo[4,5-d]pyrimidine]	> 10000 nM	11.8 nM	
Cc1nonc1Cn1nc2nc(C(C)(C)C)nc(N3CC[C@H](O)C3)c2n1 [Example 73, (S)-1-[5-tert-Butyl-2-(4-methyl-furazan-3-ylmethyl)-2H-[1,2,3]triazolo[4,5-d]pyrimidin-7-yl]-pyrrolidin-3-ol]	> 10000 nM	7.1 nM	
Cc1noc(Cn2nc3nc(C(C)(C)C)nc(N4CC[C@H](O)C4)c3n2)n1 [Example 74, (S)-1-[5-tert-Butyl-2-(3-methyl-[1,2,4]oxadiazol-5-ylmethyl)-2H-[1,2,3]triazolo[4,5-d]pyrimidin-7-yl]-pyrrolidin-3-ol]	> 10000 nM	61.3 nM	
CC(C)(C)c1nc(N2CC[C@H](O)C2)c2nn(Cc3ncccc3Cl)nc2n1 [Example 75, (S)-1-[5-tert-Butyl-2-(3-chloro-pyridin-2-ylmethyl)-2H-[1,2,3]triazolo[4,5-d]pyrimidin-7-yl]-pyrrolidin-3-ol]	> 10000 nM	4.6 nM	
CC(C)(C)c1nc(N2CC[C@H](O)C2)c2nn(Cc3nc(Cl)ccc3Cl)nc2n1 [Example 76, (S)-1-[5-tert-Butyl-2-(3,6-dichloro-pyridin-2-ylmethyl)-2H-[1,2,3]triazolo[4,5-d]pyrimidin-7-yl]-pyrrolidin-3-ol]	> 10000 nM	5.9 nM	
CC(C)(C)c1nc(N2CC[C@H](O)C2)c2nn(Cc3cccnc3Cl)nc2n1 [Example 77, (S)-1-[5-tert-Butyl-2-(2-chloro-pyridin-3-ylmethyl)-2H-[1,2,3]triazolo[4,5-d]pyrimidin-7-yl]-pyrrolidin-3-ol]	> 10000 nM	15.5 nM	
CC(C)(C)c1nc(N2CC[C@H](O)C2)c2nn(Cc3cccc(Cl)c3Cl)nc2n1 [Example 78, (S)-1-[5-tert-Butyl-2-(2,3-dichloro-benzyl)-2H-[1,2,3]triazolo[4,5-d]pyrimidin-7-yl]-pyrrolidin-3-ol]	> 10000 nM	6 nM	
CC(C)(C)c1nc(N2CC[C@H](O)C2)c2nn(Cc3ccccc3C(F)(F)F)nc2n1 [Example 79, (S)-1-[5-tert-Butyl-2-(2-trifluoromethyl-benzyl)-2H-[1,2,3]triazolo[4,5-d]pyrimidin-7-yl]-pyrrolidin-3-ol]	> 10000 nM	0.4 nM	
CC(C)(C)c1nc(N2CC[C@H](O)C2)c2nn(Cc3ccccc3S(C)(=O)=O)nc2n1 [Example 80, (S)-1-[5-tert-Butyl-2-(2-methanesulfonyl-benzyl)-2H-[1,2,3]triazolo[4,5-d]pyrimidin-7-yl]-pyrrolidin-3-ol]	> 10000 nM	10.3 nM	
Cc1cc(Cn2nc3nc(C(C)(C)C)nc(N4CCC(F)(F)C4)c3n2)n(C)n1 [Example 81, 5-tert-Butyl-7-(3,3-difluoro-pyrrolidin-1-yl)-2-(2,5-dimethyl-2H-pyrazol-3-ylmethyl)-2H-[1,2,3]triazolo[4,5-d]pyrimidine]	> 10000 nM	9.4 nM	
Cn1nncc1Cn1nc2nc(C(C)(C)C)nc(N3CCC(F)(F)C3)c2n1 [Example 82, 5-tert-Butyl-7-(3,3-difluoro-pyrrolidin-1-yl)-2-(3-methyl-3H-[1,2,3]triazol-4-ylmethyl)-2H-[1,2,3]triazolo[4,5-d]pyrimidine]	> 10000 nM	2.8 nM	
Cc1nnc(Cn2nc3nc(C(C)(C)C)nc(N4CCC(F)(F)C4)c3n2)n1C [Example 83, 5-tert-Butyl-7-(3,3-difluoro-pyrrolidin-1-yl)-2-(4,5-dimethyl-4H-[1,2,4]triazol-3-ylmethyl)-2H-[1,2,3]triazolo[4,5-d]pyrimidine]	> 10000 nM	6.1 nM	
Cc1c(Cn2nc3nc(C(C)(C)C)nc(N4CCC(F)(F)C4)c3n2)ccc[n+]1[O-] [Example 84, 5-tert-Butyl-7-(3,3-difluoro-pyrrolidin-1-yl)-2-(2-methyl-1-oxy-pyridin-3-ylmethyl)-2H-[1,2,3]triazolo[4,5-d]pyrimidine]	> 10000 nM	94 nM	
CC(C)(C)c1nc(N2CC[C@H](O)C2)c2nn(Cc3nccc(Cl)c3Cl)nc2n1 [Example 85, (S)-1-[5-tert-Butyl-2-(3,4-dichloro-pyridin-2-ylmethyl)-2H-[1,2,3]triazolo[4,5-d]pyrimidin-7-yl]-pyrrolidin-3-ol]	> 10000 nM	10.2 nM	
Cc1nc(Cn2nc3nc(C(C)(C)C)nc(N4CC[C@H](O)C4)c3n2)no1 [Example 86, (S)-1-[5-tert-Butyl-2-(5-methyl-[1,2,4]oxadiazol-3-ylmethyl)-2H-[1,2,3]triazolo[4,5-d]pyrimidin-7-yl]-pyrrolidin-3-ol]	> 10000 nM	52.2 nM	
Cc1nnc(Cn2nc3nc(C(C)(C)C)nc(N4CC[C@H](O)C4)c3n2)o1 [Example 87, (S)-1-[5-tert-Butyl-2-(5-methyl-[1,3,4]oxadiazol-2-ylmethyl)-2H-[1,2,3]triazolo[4,5-d]pyrimidin-7-yl]-pyrrolidin-3-ol]	> 10000 nM		258 nM
Cn1nnnc1Cn1nc2nc(C(C)(C)C)nc(N3CC[C@H](O)C3)c2n1 [Example 88, (S)-1-[5-tert-Butyl-2-(1-methyl-1H-tetrazol-5-ylmethyl)-2H-[1,2,3]triazolo[4,5-d]pyrimidin-7-yl]-pyrrolidin-3-ol]	> 10000 nM	52.1 nM	
Cn1ncnc1Cn1nc2nc(C(C)(C)C)nc(N3CC[C@H](O)C3)c2n1 [Example 89, (S)-1-[5-tert-Butyl-2-(2-methyl-2H-[1,2,4]triazol-3-ylmethyl)-2H-[1,2,3]triazolo[4,5-d]pyrimidin-7-yl]-pyrrolidin-3-ol]	> 10000 nM		372 nM
